# Data as given in patent US9248117B2, “Substituted N,N-dihaloamines as antimicrobials” (priority 2010, dated 2016).
# Experiments:
# [1] = tested on: S. aureus 29213; experiment: MBC/MFC against S. aureus 29213; format: cell-based; details: Staphylococcus aureus
# [2] = tested on: C. albicans 10231; experiment: MBC/MFC against C. albicans 10231; format: cell-based; details: Candida albicans
# [3] = tested on: L929 cells; experiment: CT50 cytotoxicity in L929 cells; details: pH 7 phosphate
# [4] = tested on: E. coli 25922; experiment: MBC/MFC against E. coli 25922; format: cell-based; details: Escherichia coli
SMILES,"MBC ([1]; pH 4 acetate, Table 3) [µg/mL]","MBC ([1]; pH 7 phosphate, Table 3) [µg/mL]","MFC ([2]; pH 4 acetate, Table 3) [µg/mL]","MFC ([2]; pH 7 phosphate, Table 3) [µg/mL]",CT50 L929 cells ([3]; Table 3) [mM],"MBC ([4]; pH 4 acetate, Table 3) [µg/mL]","MBC ([4]; pH 7 phosphate, Table 3) [µg/mL]","MBC ([1]; pH 4 acetate, Table 4) [µg/mL]","MBC ([1]; pH 7 phosphate, Table 4) [µg/mL]","MFC ([2]; pH 4 acetate, Table 4) [µg/mL]","MFC ([2]; pH 7 phosphate, Table 4) [µg/mL]",CT50 L929 cells ([3]; Table 4) [mM],"MBC ([4]; pH 4 acetate, Table 4) [µg/mL]","MBC ([4]; pH 7 phosphate, Table 4) [µg/mL]"
"COCCOCCOCCS(=O)(=O)CC(C)(C)N(Cl)Cl [Compound 38-01, dichloro[1-({2-[2-(2-methoxyethoxy)ethoxy]ethane}sulfonyl)-2-methylpropan-2-yl]amine]",2,256,32,> 512,0.06,2,256,–,–,–,–,–,–,–
"CC(C)(CCS(=O)(=O)CCO)N(Cl)Cl [Compound 38-25, 2-(3-(Dichloroamino)-3-methylbutylsulfonyl)ethanol]",1,16,16,512,–,0.5,8,–,–,–,–,–,–,–
"CC(C)(CCS(=O)(=O)CC(O)CO)N(Cl)Cl (stereo not drawn) [Compound 38-27, 3-(3-(Dichloroamino)-3-methylbutylsulfonyl)propane-1,2-diol]",2,4,> 256,> 1020,0.13,2,16,–,–,–,–,–,–,–
"CC(C)(CCS(=O)(=O)CC(O)C(O)CO)N(Cl)Cl (stereo not drawn) [Compound 38-29, 4-(3-(Dichloroamino)-3-methylbutylsulfonyl)butane-1,2,3-triol]",1,32,256,> 1020,–,2,128,–,–,–,–,–,–,–
"COCC[N+](C)(C)CCC(C)(C)N(Cl)Cl.[Cl-] [Compound 38-43, 3-(dichloroamino)-N-(2-methoxyethyl)-N,N,3-trimethylbutan-1-aminium chloride]",1,512,32,> 2050,1.2,2,1020,–,–,–,–,–,–,–
"COCCOCCOCC[N+](C)(C)CCC(C)(C)N(Cl)Cl [Compound 38-45, 3-(dichloroamino)-N-(2-(2-(2-methoxyethoxy)ethoxy)ethyl)-N,N,3-trimethylbutan-1-aminium 4-methylbenzenesulfonate]",4,1020,64,> 2050,3.2,4,1020,–,–,–,–,–,–,–
"CC(=O)OCC(O)CS(=O)(=O)CCC(C)(C)N(Cl)Cl (stereo not drawn) [Compound 38-49, 3-(3-(Dichloroamino)-3-methylbutylsulfonyl)-2-hydroxypropyl acetate]",4,32,16,> 512,–,2,64,–,–,–,–,–,–,–
"CC(=O)OCC(CS(=O)(=O)CCC(C)(C)N(Cl)Cl)OC(C)=O (stereo not drawn) [Compound 38-51, 3-(3-(Dichloroamino)-3-methylbutylsulfonyl)propane-1,2-diyl diacetate]",2,128,16,128,–,1,128,–,–,–,–,–,–,–
"CC(C)(CCS(=O)(=O)CCOCCOCCS(=O)(=O)O)N(Cl)Cl [Compound 38-81, 2-(2-(2-(3-(dichloroamino)-3-methylbutylsulfonyl)ethoxy)ethoxy) ethanesulfonic acid]",4,256,128,> 2050,2.13,2,32,–,–,–,–,–,–,–
"CC(C)(CCS(=O)(=O)CCOCCS(=O)(=O)O)N(Cl)Cl [Compound 38-83, 2-(2-(3-(dichloroamino)-3-methylbutylsulfonyl)ethoxy)ethanesulfonic acid]",1,256,128,> 1020,1.74,2,128,–,–,–,–,–,–,–
"CC(C)(CCS(=O)(=O)CCOCCOCCO)N(Cl)Cl [Compound 38-85, 2-(2-(2-(3-(Dichloroamino)-3-methylbutylsulfonyl)ethoxy)ethoxy)ethanol]",4,64,32,> 1020,0.04,4,64,–,–,–,–,–,–,–
"CC(=O)OCCOCCOCCS(=O)(=O)CCC(C)(C)N(Cl)Cl [Compound 38-87, 2-(2-(2-(3-(Dichloroamino)-3-methylbutylsulfonyl)ethoxy)ethoxy)ethyl acetate]",4,128,32,512,–,4,128,–,–,–,–,–,–,–
"CCOCCOCCOCCS(=O)(=O)CCC(C)(C)N(Cl)Cl [Compound 38-89, N,N-dichloro-4-(2-(2-(2-ethoxyethoxy)ethoxy)ethylsulfonyl)-2-methylbutan-2-amine]",8,128,4,512,0.06,8,256,–,–,–,–,–,–,–
"CC(C)(C)OCCOCCOCCS(=O)(=O)CCC(C)(C)N(Cl)Cl [Compound 38-91, N,N-dichloro-4-(2-(2-(2-tert-butoxyethoxy)ethoxy)ethylsulfonyl)-2-methylbutan-2-amine]",4,128,16,128,–,8,> 256,–,–,–,–,–,–,–
"CCCCOCC[N+](C)(C)CCC(C)(C)N(Cl)Cl.[Cl-] [Compound 38-133, N-(2-butoxyethyl)-3-(dichloroamino)-N,N,3-trimethylbutan-1-aminium chloride]",8,128,64,1020,0.26,8,128,–,–,–,–,–,–,–
"CCCCCCOCC[N+](C)(C)CCC(C)(C)N(Cl)Cl.Cc1ccc(S(=O)(=O)[O-])cc1 [Compound 38-135, 3-(dichloroamino)-N-(2-(hexyloxy)ethyl)-N,N,3-trimethylbutan-1-aminium 4-methylbenzenesulfonate]",2,512,32,> 1020,0.08,8,256,–,–,–,–,–,–,–
"COCCC[N+](C)(C)CCC(C)(C)N(Cl)Cl [Compound 38-137, 3-(dichloroamino)-N-(3-methoxypropyl)-N,N,3-trimethylbutan-1-aminium chloride]",4,> 1020,32,> 1020,1.62,8,512,–,–,–,–,–,–,–
"CO[C@H]1O[C@H](CS(=O)(=O)CCC(C)(C)N(Cl)Cl)[C@@H](O)[C@H](O)[C@H]1O [Compound 38-141, (2S,3S,4S,5R,6S)-2-(((3-(dichloroamino)-3-methylbutyl)sulfonyl)methyl)-6-methoxytetrahydro-2H-pyran-3,4,5-triol]",8,256,16,> 1020,–,8,512,–,–,–,–,–,–,–
"CC(C)(CCS(=O)(=O)C(CO)C(O)CO)N(Cl)Cl (stereo not drawn) [Compound 38-145, 3-(3-(Dichloroamino)-3-methylbutylsulfonyl)butane-1,2,4-triol]",2,16,64,1020,–,2,64,–,–,–,–,–,–,–
"COCCOCCOCCOCCS(=O)(=O)CCC(C)(C)N(Cl)Cl [Compound 38-147, N,N-dichloro-2-methyl-4-(2-(2-(2-(2-methoxyethoxy)ethoxy)ethoxy)ethylsulfonyl)butan-2-amine]",8,128,> 256,2050,0.039,8,256,–,–,–,–,–,–,–
"CC(C)(CC[N+](C)(C)CCCO)N(Cl)Cl [Compound 38-151, 3-(dichloroamino)-N-(3-hydroxypropyl)-N,N,3-trimethylbutan-1-aminium]",4,> 2050,64,> 1020,0.12,4,1020,–,–,–,–,–,–,–
"COCCN1C(=O)C(C)(C)N(Cl)C1(C)C [Compound 39-01, 1-chloro-3-(2-methoxyethyl)-2,2,5,5-tetramethylimidazolidin-4-one]",–,–,–,–,–,–,–,2,128,8,256,0.08,2,128
"COCCOCCOCCN1C(=O)C(C)(C)N(Cl)C1(C)C [Compound 39-04, 1-Chloro-3-(2-(2-(2-methoxyethoxy)ethoxy)ethyl)-2,2,5,5-tetramethylimidazolidin-4-one]",–,–,–,–,–,–,–,2,256,16,1020,0.14,2,256
"COCCOCCOCCOCCN1C(=O)C(C)(C)N(Cl)C1(C)C [Compound 39-12, 1-chloro-2,2,5,5-tetramethyl-3-(2,5,8,11-tetraoxatridecan-13-yl)imidazolidin-4-one]",–,–,–,–,–,–,–,8,256,16,> 1020,0.18,8,256
"CC1(C)C(=O)N(CC(O)CO)C(C)(C)N1Cl (stereo not drawn) [Compound 39-27, 1-chloro-3-(2,3-dihydroxypropyl)-2,2,5,5-tetramethylimidazolidin-4-one]",–,–,–,–,–,–,–,4,1020,16,> 2050,0.14,4,512
"COCCOCCOCC[N+]1(C)CC(C)(C)N(Cl)C(C)(C)C1.[Cl-] [Compound 39-106, 4-chloro-1-(2-(2-(2-methoxyethoxy)ethoxy)ethyl)-1,3,3,5,5-pentamethylpiperazin-1-ium chloride]",–,–,–,–,–,–,–,32,> 512,64,> 512,0.24,16,256
